Where no end group is shown, it is not given here.
What was measured:
[1] = tested on: macrophages (PMA-induced U937 cells); test: flow cytometry macrophage apoptosis test (AV-FITC/PI); type: cell-based, Human; settings: 24 h; Adalimumab 50 μg/mL, mPEG-SC20k-HM-3 13.5 μmol/L
Description: Human U937 cells are added to a 6-well plate (1.5×10^5 cells/mL), PMA (25 ng/mL) is added to perform induction for 48 h for differentiation into macrophages, and the macrophages are added to the positive drug Adalimumab group (50 μg/mL), the HM-3 control group (13.5 μmol/L), the mPEG-SC20k-HM-3 group (13.5 μmol/L), isovolumetric PBS is added to the blank group and the model group, and the cells are incubated in a CO2 incubator at 37° C. for 24 h. For the H2O2 group (3%, 20 μL/mL volume) test, hydrogen peroxide is added in the first half hour to normal cells for apoptosis induction control.
1000 g of solution is centrifuged for 5 min, and supernatant is discarded. Washing is performed once with PBS.
The apoptosis is tested on the flow cytometer according to the instructions of the AV-FITC/PI apoptosis kit.

[2] = tested on: macrophages (PMA-induced U937 cells); test: Western blot of protein expression in macrophages (PMA-induced U937 cells); type: cell-based, human
Description: 3.1 U937 cells are added to a 6-well plate (1.5×10^5 cells/mL), PMA (25 ng/mL) is used for induction for 48 h, and the cells adhere and differentiate into macrophages. Positive drug Adalimumab (25 μg/mL, 50 μg/mL, 100 μg/mL, 200 μg/mL, 400 μg/mL), Avastin (25 μg/mL, 50 μg/mL) are added, the final concentrations of mPEG-SC20k-HM-3 are 2.25, 4.5, 9.0, 13.5, 18.0, 36 μmol/L, and isovolumetric PBS is added to the blank group and the model group. The cells are incubated in a CO2 incubator at 37° C. for 24 or 48 h. Rat synovial cells are induced with LPS for 24 h and then mPEG-SC20k-HM-3 is administrated to final concentrations of 2.25, 4.5, 9.0, 13.5, 18.0 μmol/L, and the cells are incubated in a CO2 incubator at 37° C. for 48 h.
3.3 A protein extract solution is added at 20 μL/1×10^5 cells, and the cells are pipetted and dispersed, and stand at 4° C. for 30 min to lyse the cells.
3.4 1/4 volume of 5×protein loading buffer is added, and boiling water bath is performed for 5-10 min.
3.5 20 μL of protein sample is taken and 10% SDS-PAGE electrophoresis is performed.
3.6 The protein on the gel is transferred to the PVDF membrane by using a wetting transfer method with a constant current of 100 mA for 1-2.5 h.
3.7 The PVDF membrane is blocked with a blocking solution at room temperature for 2 h.
3.8 The membrane is washed for 3 times with PBST, 5 min each time. A primary antibody is added and the membrane stands at 4° C. overnight or is incubated at 37° C. for 2 h.
3.9 The membrane is washed for 3 times with PBST, 5 min each time. A secondary antibody is added and the membrane is incubated at room temperature for more than 2 h.
3.10 The membrane is exposed in a gel imager using an ECL detection kit.

[3] = tested on: IL-6; test: immunohistochemistry of IL-6 in spleen and thymus, CIA transgenic TNF-luc mice; type: in vivo, BALB/c transgenic TNF-luc mice; settings: Adalimumab 8 mg/kg, mPEG-SC20k-HM-3 20 mg/kg
Description: Determining criteria: The experimental results are determined based on the proportion of positive cells in all tissue cells and the staining intensity of positive cells: A: scoring is performed based on the number of chromogenic cells, 1 point is given when the proportion of the number of positive cells is less than ⅓, 2 points are given when the proportion of the number of positive cells is ⅓-⅔, and 3 points are given when the proportion of the number of positive cells is greater than or equal to ⅔. B: Based on the color depth of cells, 0 point is given when no cells have positive reaction, 1 point is given when cells are light yellow, 2 points are given when the cells are light brown, and 3 points are given when the cells are dark brown. Point product=A×B. The result is expressed in point product.

[4] = with the increase of the dosage

Adalimumab [reference compound]
rate of early apoptosis of macrophages [1]: 14.2%
rate of late apoptosis of macrophages [1]: 15.2%
effect on integrin pathway angiogenesis [2]: no inhibitory effect
immunohistochemical score of IL-6 in spleen [3]: 0.008±0.003
immunohistochemical score of IL-6 in thymus [3]: 0.030±0.031

mPEG-SC20k-Ile-Val-Arg-Arg-Ala-Asp-Arg-Ala-Ala-Val-Pro-Gly-Gly-Gly-Gly-Arg-Gly-Asp ({mPEG‑SC 20k}-IVRRADRAAVPGGGGRGD) [polypeptide III, No. 3]
rate of early apoptosis of macrophages [1]: 28.0%
rate of late apoptosis of macrophages [1]: 14.7%
dose with the best inhibitory effect on the expression of Integrin α5, Integrin β1, VEGFR2, HIF-1β, IL-6 proteins [2]: 13.5 µM
dose with the best inhibitory effect on the expression of TNFR1 protein [2]: 18 µM
dose with the best inhibitory effect on the expression of TNFR2, NF-κB and TNF-α proteins [2]: 4.5 µM
expression of HIF-1β and IL-6 protein in macrophages [2, 4]: down-regulated
expression of NF-κB protein factors in nuclei [2, 4]: down-regulated
expression of TNFR1 and TNFR2 protein factors in macrophages [2, 4]: down-regulated
expression of integrin α5, Integrin β1 and VEGFR2 proteins in macrophages [2, 4]: down-regulated
immunohistochemical score of IL-6 in spleen [3]: 0.017±0.009
immunohistochemical score of IL-6 in thymus [3]: 0.040±0.021
